Measurements reported in patent publication US11325889B2, “Substituted 3-((3-aminophenyl)amino)piperidine-2,6-dione compounds, compositions thereof, and methods of treatment therewith” (Celgene Corporation, priority 2018, dated 2022).

Biological target: T1, AR protein in VCaP cells (Homo sapiens, UniProt P10275)
T1 construct: endogenous in cells; host or cells: VCaP cells
T1 sequence (P10275 1-920): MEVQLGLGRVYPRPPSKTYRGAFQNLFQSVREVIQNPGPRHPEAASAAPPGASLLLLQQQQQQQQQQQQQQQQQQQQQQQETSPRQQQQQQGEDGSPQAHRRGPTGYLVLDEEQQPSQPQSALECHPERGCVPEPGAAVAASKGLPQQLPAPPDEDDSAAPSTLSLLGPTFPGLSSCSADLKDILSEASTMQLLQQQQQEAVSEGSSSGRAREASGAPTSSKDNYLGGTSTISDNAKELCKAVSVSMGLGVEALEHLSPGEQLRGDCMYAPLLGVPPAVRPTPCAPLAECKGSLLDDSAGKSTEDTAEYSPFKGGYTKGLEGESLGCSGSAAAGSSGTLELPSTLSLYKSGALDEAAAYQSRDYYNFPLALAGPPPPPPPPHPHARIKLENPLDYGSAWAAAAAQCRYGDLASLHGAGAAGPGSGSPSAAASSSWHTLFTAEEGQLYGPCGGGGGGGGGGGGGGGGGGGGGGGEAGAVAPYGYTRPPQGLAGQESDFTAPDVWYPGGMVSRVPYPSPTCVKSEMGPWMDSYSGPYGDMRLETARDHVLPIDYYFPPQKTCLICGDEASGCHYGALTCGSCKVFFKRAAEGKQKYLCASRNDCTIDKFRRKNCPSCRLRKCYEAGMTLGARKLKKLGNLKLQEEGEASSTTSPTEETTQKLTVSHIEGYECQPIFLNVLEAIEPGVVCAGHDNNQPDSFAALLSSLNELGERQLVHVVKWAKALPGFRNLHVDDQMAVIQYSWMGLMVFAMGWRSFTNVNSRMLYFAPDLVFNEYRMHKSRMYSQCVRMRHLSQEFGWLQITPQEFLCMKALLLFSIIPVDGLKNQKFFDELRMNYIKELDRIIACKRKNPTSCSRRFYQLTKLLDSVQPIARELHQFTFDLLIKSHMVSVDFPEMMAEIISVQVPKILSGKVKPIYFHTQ
Assay: VCAP AR Degradation Assay (AR ELISA, 24 h)
Format: cell-based
Conditions: for Y (lowest measured AR level normalized to DMSO control): AR degradation efficiency; for DC50: concentration of compound when AR level = 50% of DMSO control, read-out: DC50
Procedure: VCAP AR Degradation Assay.
Test compounds were pre-dispensed into a Corning CellBind 96-well clear bottom plate (Cat #3300) using an acoustic dispenser to make a 10-point concentration series at 1:3 dilution for each compound. The final top concentration of each compound was […]. DMSO at a final concentration of 0.1% was used as a control. VCaP cells cultured in DMEM with 8% fetal bovine serum (FBS) were seeded at 50K cells per well in a 200 μL volume into the compound plate and incubated at 37° C. in a CO2 incubator for 24 h. The medium was carefully removed from the cells and the plate was placed on ice. One hundred […] of ice-cold 1× cell lysis buffer from Cell Signaling Technologies (Cat #9803) was added to each well of the cells and the plate was incubated at 4° C. on a shaker for 1 h. Fifteen […] of cell lysate was used for AR ELISA detection using a PathScan Total Sandwich AR ELISA kit (Cell Signaling Technology, Cat #12580). AR levels in compound-treated wells were normalized to that of DMSO control and expressed as percent of control (PoC) (y). A Four Parameter Logistic Model (Sigmoidal Dose-Response Model) was used to determine the compound's DC50, and EC50, using the following equation: y=(A+((B−A)/(1+((C/x)^D)))) • A=YMin (lowest AR level normalized to DMSO control in response to compound • treatment, as determined by curve fit) • B=YMax (maximum AR level as determined by curve fit) • C=EC50 • D=Hill Slope • x=compound concentration • EC50=the concentration of compound when y=(YMax−YMin)/2 • DC50=the concentration of the compound when y=50% of DMSO control (50% AR degradation) • y=AR protein level normalized to DMSO control
The lowest measured AR level normalized to DMSO control in response to compound treatment, termed Y value, was used to characterize the compound-mediated AR degradation efficiency.

Row | Y (lowest measured AR level normalized to DMSO control) | DC50 [nM] | Compound
1 | * (0<Y<=25%) | < 100 | CCc1cc(N2C(=S)N(c3cnc(C#N)c(C(F)(F)F)c3)C(=O)C23CCC3)ccc1OCCC1CCN(CC(=O)Nc2cc(Cl)cc(NC3CCC(=O)NC3=O)c2)CC1 (centres unmarked) [Cmpd 27, N-(3-chloro-5-(2,6-dioxopiperidin-3-ylamino)phenyl)-2-(4-(2-(4-(7-(6-cyano-5-(trifluoromethyl)pyridin-3-yl)-8-oxo-6-thioxo-5,7-diazaspiro[3.4]octan-5-yl)-2-ethylphenoxy)ethyl)piperidin-1-yl)acetamide]
2 | * (0<Y<=25%) | < 100 | CCc1cc(N2C(=S)N(c3cnc(C#N)c(C(F)(F)F)c3)C(=O)C23CCC3)ccc1OCCC1CCN(CC(=O)Nc2cccc(NC3CCC(=O)NC3=O)c2)CC1 (centres unmarked) [Cmpd 29, 2-(4-(2-(4-(7-(6-cyano-5-(trifluoromethyl)pyridin-3-yl)-8-oxo-6-thioxo-5,7-diazaspiro[3.4]octan-5-yl)-2-ethylphenoxy)ethyl)piperidin-1-yl)-N-(3-(2,6-dioxopiperidin-3-ylamino)phenyl)acetamide]
3 | *** (35%<Y<50%) | 500 to 1000 | CCc1cc(N2C(=S)N(c3cnc(C#N)c(C(F)(F)F)c3)C(=O)C2(C)C)ccc1OCCC1CCN(C2(C(=O)Nc3cc(Cl)cc(NC4CCC(=O)NC4=O)c3)CC2)CC1 (centres unmarked) [Cmpd 34, N-(3-chloro-5-(2,6-dioxopiperidin-3-ylamino)phenyl)-1-(4-(2-(4-(3-(6-cyano-5-(trifluoromethyl)pyridin-3-yl)-5,5-dimethyl-4-oxo-2-thioxoimidazolidin-1-yl)-2-ethylphenoxy)ethyl)piperidin-1-yl)cyclopropanecarboxamide]
4 | * (0<Y<=25%) | 100 to 500 | CCc1cc(N2C(=S)N(c3cnc(C#N)c(C(F)(F)F)c3)C(=O)C23CCC3)ccc1OCCC1CCN([C@@H](C)C(=O)Nc2cc(Cl)cc(NC3CCC(=O)NC3=O)c2)CC1 (stereo partly drawn) [Cmpd 35, (2S)-N-(3-chloro-5-(2,6-dioxopiperidin-3-ylamino)phenyl)-2-(4-(2-(4-(7-(6-cyano-5-(trifluoromethyl)pyridin-3-yl)-8-oxo-6-thioxo-5,7-diazaspiro[3.4]octan-5-yl)-2-ethylphenoxy)ethyl)piperidin-1-yl)propanamide]
5 | * (0<Y<=25%) | 100 to 500 | CCc1cc(N2C(=S)N(c3cnc(C#N)c(C(F)(F)F)c3)C(=O)C23CCC3)ccc1OCCC1CCN([C@H](C)C(=O)Nc2cc(Cl)cc(NC3CCC(=O)NC3=O)c2)CC1 (stereo partly drawn) [Cmpd 36, (2R)-N-(3-chloro-5-(2,6-dioxopiperidin-3-ylamino)phenyl)-2-(4-(2-(4-(7-(6-cyano-5-(trifluoromethyl)pyridin-3-yl)-8-oxo-6-thioxo-5,7-diazaspiro[3.4]octan-5-yl)-2-ethylphenoxy)ethyl)piperidin-1-yl)propanamide]
6 | * (0<Y<=25%) | < 100 | CCc1cc(N2C(=S)N(c3cnc(C#N)c(C(F)(F)F)c3)C(=O)C2(C)C)ccc1OCCC1CCN([C@@H](C)C(=O)Nc2cc(C#N)cc(NC3CCC(=O)NC3=O)c2)CC1 (stereo partly drawn) [Cmpd 37, (2S)-N-(3-cyano-5-(2,6-dioxopiperidin-3-ylamino)phenyl)-2-(4-(2-(4-(3-(6-cyano-5-(trifluoromethyl)pyridin-3-yl)-5,5-dimethyl-4-oxo-2-thioxoimidazolidin-1-yl)-2-ethylphenoxy)ethyl)piperidin-1-yl)propanamide]
7 | ** (25%<Y<=35%) | < 100 | CCc1cc(N2C(=S)N(c3cnc(C#N)c(C(F)(F)F)c3)C(=O)C2(C)C)ccc1OCCC1CCN([C@H](C)C(=O)Nc2cc(C#N)cc(NC3CCC(=O)NC3=O)c2)CC1 (stereo partly drawn) [Cmpd 38, (2R)-N-(3-cyano-5-(2,6-dioxopiperidin-3-ylamino)phenyl)-2-(4-(2-(4-(3-(6-cyano-5-(trifluoromethyl)pyridin-3-yl)-5,5-dimethyl-4-oxo-2-thioxoimidazolidin-1-yl)-2-ethylphenoxy)ethyl)piperidin-1-yl)propanamide]

Row | Compound | Y (lowest measured AR level normalized to DMSO control) | DC50 [nM]
8 | CCc1cc(N2C(=S)N(c3ccc(C#N)c(C(F)(F)F)c3)C(=O)C2(C)C)ccc1OCCC1CCN([C@@H](C)C(=O)Nc2cc(Cl)cc(NC3CCC(=O)NC3=O)c2)CC1 (stereo partly drawn) [Cmpd 26, (2S)-N-(3-chloro-5-(2,6-dioxopiperidin-3-ylamino)phenyl)-2-(4-(2-(4-(3-(4-cyano-3-(trifluoromethyl)phenyl)-5,5-dimethyl-4-oxo-2-thioxoimidazolidin-1-yl)-2-ethylphenoxy)ethyl)piperidin-1-yl)propanamide] | * (0<Y<=25%) | 100 to 500
9 | CCc1cc(N2C(=S)N(c3ccc(C#N)c(C(F)(F)F)c3)C(=O)C23CCC3)ccc1OCCC1CCN(CC(=O)Nc2cc(Cl)cc(NC3CCC(=O)NC3=O)c2)CC1 (centres unmarked) [Cmpd 28, N-(3-chloro-5-(2,6-dioxopiperidin-3-ylamino)phenyl)-2-(4-(2-(4-(7-(4-cyano-3-(trifluoromethyl)phenyl)-8-oxo-6-thioxo-5,7-diazaspiro[3.4]octan-5-yl)-2-ethylphenoxy)ethyl)piperidin-1-yl)acetamide] | * (0<Y<=25%) | 100 to 500
10 | CC(F)(F)c1cc(N2C(=S)N(c3ccc(C#N)c(C(F)(F)F)c3)C(=O)C2(C)C)ccc1OCCC1CCN(CC(=O)Nc2cc(Cl)cc(NC3CCC(=O)NC3=O)c2)CC1 (centres unmarked) [Cmpd 30, N-(3-chloro-5-(2,6-dioxopiperidin-3-ylamino)phenyl)-2-(4-(2-(4-(3-(4-cyano-3-(trifluoromethyl)phenyl)-5,5-dimethyl-4-oxo-2-thioxoimidazolidin-1-yl)-2-(1,1-difluoroethyl)phenoxy)ethyl)piperidin-1-yl)acetamide] | * (0<Y<=25%) | 100 to 500
11 | CCc1cc(N2C(=S)N(c3ccc(C#N)c(C(F)(F)F)c3)C(=O)C23CCC3)ccc1OCCC1CCN([C@H](C)C(=O)Nc2cc(Cl)cc(NC3CCC(=O)NC3=O)c2)CC1 (stereo partly drawn) [Cmpd 31, (2R)-N-(3-chloro-5-(2,6-dioxopiperidin-3-ylamino)phenyl)-2-(4-(2-(4-(7-(4-cyano-3-(trifluoromethyl)phenyl)-8-oxo-6-thioxo-5,7-diazaspiro[3.4]octan-5-yl)-2-ethylphenoxy)ethyl)piperidin-1-yl)propanamide] | * (0<Y<=25%) | 100 to 500
12 | CCc1cc(N2C(=S)N(c3ccc(C#N)c(C(F)(F)F)c3)C(=O)C23CCC3)ccc1OCCC1CCN([C@@H](C)C(=O)Nc2cc(Cl)cc(NC3CCC(=O)NC3=O)c2)CC1 (stereo partly drawn) [Cmpd 32, (2S)-N-(3-chloro-5-(2,6-dioxopiperidin-3-ylamino)phenyl)-2-(4-(2-(4-(7-(4-cyano-3-(trifluoromethyl)phenyl)-8-oxo-6-thioxo-5,7-diazaspiro[3.4]octan-5-yl)-2-ethylphenoxy)ethyl)piperidin-1-yl)propanamide] | ** (25%<Y<=35%) | 100 to 500
13 | CC1(C)C(=O)N(c2ccc(C#N)c(C(F)(F)F)c2)C(=S)N1c1ccc(OCCC2CCN(CC(=O)Nc3cc(Cl)cc(NC4CCC(=O)NC4=O)c3)CC2)c(CCF)c1 (centres unmarked) [Cmpd 33, N-(3-chloro-5-(2,6-dioxopiperidin-3-ylamino)phenyl)-2-(4-(2-(4-(3-(4-cyano-3-(trifluoromethyl)phenyl)-5,5-dimethyl-4-oxo-2-thioxoimidazolidin-1-yl)-2-(2-fluoroethyl)phenoxy)ethyl)piperidin-1-yl)acetamide] | * (0<Y<=25%) | < 100
